In US9441012B2, “Fluorinated epoxyketone-based compounds and uses thereof as proteasome inhibitors” (FLUORINOV PHARMA INC., priority 2012, dated 2016):

Experiments:
Assay in all cases: NCI 60 human tumor cell line screen (SRB)
Type in all cases: cell-based
U251 = U251 (CNS Cancer); 48 h
Procedure, shortened: (§1)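 Cells plated 24 h before dosing, with time-zero plates TCA-fixed at drug addition; five concentrations (10-fold or ½-log dilutions) added and incubated 48 h at 37 °C, 5% CO2. Adherent cells fixed with 10% TCA, stained with 0.4% SRB, absorbance read at 515 nm; GI50, TGI and LC50 derived from percentage growth versus time zero and control.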

HL-60(TB) = HL-60(TB) (Leukemia); 48 h
Procedure, shortened: as §1

M14 = M14 (Melanoma); 48 h
Procedure, shortened: as §1

OVCAR-3 = OVCAR-3 (Ovarian Cancer); 48 h
Procedure, shortened: as §1

UACC-62 = UACC-62 (Melanoma); 48 h
Procedure, shortened: as §1

MDA-MB-435 = MDA-MB-435 (Melanoma); 48 h
Procedure, shortened: as §1

MDA-MB-231/ATCC = MDA-MB-231/ATCC (Breast Cancer); 48 h
Procedure, shortened: as §1

RPMI-8226 = RPMI-8226 (Leukemia); 48 h
Procedure, shortened: as §1

SF-295 = SF-295 (CNS Cancer); 48 h
Procedure, shortened: as §1

NCI-H322M = NCI-H322M (Non-Small Cell Lung Cancer); 48 h
Procedure, shortened: as §1

HCT-116 = HCT-116 (Colon Cancer); 48 h
Procedure, shortened: as §1

COLO 205 = COLO 205 (Colon Cancer); 48 h
Procedure, shortened: as §1

Compound	Log10GI50 (U251)	Log10LC50 (U251)	Log10TGI50 (U251)	Log10GI50 (M14)	Log10LC50 (M14)	Log10TGI50 (M14)	Log10GI50 (OVCAR-3)	Log10LC50 (OVCAR-3)	Log10TGI50 (OVCAR-3)	Log10GI50 (UACC-62)	Log10LC50 (UACC-62)	Log10TGI50 (UACC-62)	Log10GI50 (MDA-MB-435)	Log10TGI50 (MDA-MB-435)	Log10GI50 (MDA-MB-231/ATCC)	Log10LC50 (MDA-MB-231/ATCC)	Log10TGI50 (MDA-MB-231/ATCC)	Log10GI50 (RPMI-8226)	Log10LC50 (RPMI-8226)	Log10TGI50 (RPMI-8226)	also measured
Cc1ncc(C(=O)N[C@@H](COC(F)F)C(=O)N[C@@H](COC(F)F)C(=O)N[C@@H](Cc2ccccc2)C(=O)[C@@]2(C)CO2)s1 [Example 1, 2-methyl-thiazole-5-carboxylic acid ((S)-1-{(S)-1-[(S)-1-benzyl-2-((R)-2-methyloxiranyl)-2-oxo-ethylcarbamoyl]-2-difluoromethoxyethylcarbamoyl}-2-difluoromethoxyethyl)-amide]	−6.55	>−4.00	−4.94	−6.86	−4.35	−6.24	−7.46	−6.30	−6.90	−6.68	−4.95	−5.78	−7.43	−6.74	−6.66	−4.73	−6.01	−7.40	>−4.00	−4.86	Log10GI50 (HL-60(TB)): −6.56; Log10LC50 (HL-60(TB)): >−4.00; Log10TGI50 (HL-60(TB)): >−4.00; Log10LC50 (MDA-MB-435): >−4.00; Log10GI50 (SF-295): −7.17; Log10LC50 (SF-295): −4.88; Log10TGI50 (SF-295): −6.24; Log10GI50 (NCI-H322M): −5.54; Log10LC50 (NCI-H322M): −4.23; Log10TGI50 (NCI-H322M): −4.74; Log10GI50 (HCT-116): −7.32; Log10LC50 (HCT-116): −6.17; Log10TGI50 (HCT-116): −6.71; Log10GI50 (COLO 205): −6.22; Log10LC50 (COLO 205): >−4.00; Log10TGI50 (COLO 205): −4.85
CC(C)C[C@H](NC(=O)[C@H](Cc1ccccc1)NC(=O)[C@H](COC(F)F)NC(=O)CN1CCOCC1)C(=O)[C@@]1(C)CO1 [Example 25, (2S)-2-[[(2S)-3-(difluoromethoxy)-2-[(2-morpholinoacetyl)amino]propanoyl]amino]-N-[(1S)-3-methyl-1-[(2R)-2-methyloxirane-2-carbonyl]butyl]-3-phenyl-propanamide]	−7.44	>−4.00	−6.75	−7.48	>−4.00	−6.71	−7.66	−6.97	−7.33	−7.35	−4.58	−6.63	−7.75	−7.42	−7.52	−4.21	−6.80	−7.52	>−4.00	−7.04	Log10GI50 (HL-60(TB)): −7.45; Log10LC50 (HL-60(TB)): >−4.00; Log10TGI50 (HL-60(TB)): −6.35; Log10LC50 (MDA-MB-435): −7.10; Log10GI50 (SF-295): −7.68; Log10LC50 (SF-295): −6.49; Log10TGI50 (SF-295): −7.26; Log10GI50 (NCI-H322M): −7.10; Log10LC50 (NCI-H322M): >−4.00; Log10TGI50 (NCI-H322M): −6.33; Log10GI50 (HCT-116): −7.70; Log10LC50 (HCT-116): −6.55; Log10TGI50 (HCT-116): −7.30; Log10GI50 (COLO 205): −7.39; Log10LC50 (COLO 205): −6.21; Log10TGI50 (COLO 205): −6.76
C[C@]1(C(=O)[C@H](Cc2ccccc2)NC(=O)[C@H](COC(F)F)NC(=O)[C@H](COC(F)F)NC(=O)CN2CCOCC2)CO1 [Example 26, (S)-N-{(S)-1-[(S)-1-Benzyl-2-((R)-2-methyl-oxiranyl)-2-oxo-ethylcarbamoyl]-2-difluoromethoxyethyl}-3-difluoromethoxy-2-(2-morpholin-4-yl-acetylamino)-propio-namide]	−7.44	>−4.00	−6.75	−7.48	>−4.00	−6.71	−7.66	−6.97	−7.33	−7.35	−4.58	−6.63	−7.75	−7.42	−7.52	−4.21	−6.80	−7.52	>−4.00	−7.04	Log10GI50 (HL-60(TB)): −7.45; Log10LC50 (HL-60(TB)): >−4.00; Log10TGI50 (HL-60(TB)): −6.35; Log10LC50 (MDA-MB-435): −7.10; Log10GI50 (SF-295): −7.68; Log10LC50 (SF-295): −6.49; Log10TGI50 (SF-295): −7.26; Log10GI50 (NCI-H322M): −7.10; Log10LC50 (NCI-H322M): >−4.00; Log10TGI50 (NCI-H322M): −6.33; Log10GI50 (HCT-116): −7.70; Log10LC50 (HCT-116): −6.55; Log10TGI50 (HCT-116): −7.30; Log10GI50 (COLO 205): −7.39; Log10LC50 (COLO 205): −6.21; Log10TGI50 (COLO 205): −6.76
C[C@]1(C(=O)[C@H](Cc2ccccc2)NC(=O)[C@H](Cc2ccccc2)NC(=O)[C@H](COC(F)F)NC(=O)CN2CCOCC2)CO1 [Example 29]	−6.98	>−4.00	−5.70	−7.21	>−4.00	−5.85	−7.35	−5.66	−6.71	−7.00	>−4.00	−6.37	−7.63	−7.17	−7.04	−4.44	−6.27	−7.40	>−4.00	−6.43	Log10GI50 (SF-295): −7.19; Log10LC50 (SF-295): −5.94; Log10TGI50 (SF-295): −6.55; Log10GI50 (NCI-H322M): −6.27; Log10LC50 (NCI-H322M): −4.18; Log10TGI50 (NCI-H322M): −5.52; Log10GI50 (HCT-116): −7.46; Log10LC50 (HCT-116): >−4.00; Log10TGI50 (HCT-116): −5.91; Log10GI50 (COLO 205): −6.90; Log10LC50 (COLO 205): −5.34; Log10TGI50 (COLO 205): −6.32
